Test results as given in the NIST ThermoML archive (doi:10.1016/j.jct.2011.09.001).
Numbers after ± are expanded uncertainties.

Experiment: xn = mol fraction of the nth substance listed
Details: 101 kPa, Liquid; for mass density: Vibrating tube method; for speed of sound: Sing-around technique in a fixed-path interferometer

c1ccc2c(c1)CCCC2 [1,2,3,4-tetrahydronaphthalene] + CCCCCCCCCC
Details	mass density, 303.15 K [kg/m3]	mass density, 313.15 K [kg/m3]	mass density, 323.15 K [kg/m3]	mass density, 333.15 K [kg/m3]	mass density, 343.15 K [kg/m3]	speed of sound, 313.15 K [m/s]	speed of sound, 323.15 K [m/s]	speed of sound, 333.15 K [m/s]	speed of sound, 343.15 K [m/s]
x1 = 0.1008	740.2 ± 0.3	732.6 ± 0.3	724.9 ± 0.3	717.2 ± 0.3	709.3 ± 0.3	1191.3 ± 1.2	1153.1 ± 1.2	1115.5 ± 1.2	1078.4 ± 1.2
x1 = 0.2034	759.1 ± 0.3	751.5 ± 0.3	743.8 ± 0.3	736 ± 0.3	728.2 ± 0.3	1207.6 ± 1.2	1169.6 ± 1.2	1132.1 ± 1.2	1095.2 ± 1.2
x1 = 0.3	778.6 ± 0.3	770.9 ± 0.3	763.2 ± 0.3	755.4 ± 0.3	747.6 ± 0.3	1224.9 ± 1.2	1187.1 ± 1.2	1149.8 ± 1.2	1113.2 ± 1.2
x1 = 0.401	799.8 ± 0.3	792.1 ± 0.3	784.3 ± 0.3	776.5 ± 0.3	768.7 ± 0.3	1243.1 ± 1.2	1205.4 ± 1.2	1168.2 ± 1.2	1131.6 ± 1.2
x1 = 0.494	820.8 ± 0.3	812.9 ± 0.3	805.2 ± 0.3	797.3 ± 0.3	789.5 ± 0.3	1263.8 ± 1.2	1226.2 ± 1.2	1189.2 ± 1.2	1152.9 ± 1.2
x1 = 0.5949	845.1 ± 0.2	837.3 ± 0.3	829.5 ± 0.3	821.6 ± 0.3	813.7 ± 0.3	1286.8 ± 1.2	1249.3 ± 1.2	1212.4 ± 1.2	1176.1 ± 1.2
x1 = 0.7009	872.4 ± 0.2	864.7 ± 0.2	856.8 ± 0.3	849 ± 0.3	841.1 ± 0.3	1314.5 ± 1.2	1277.1 ± 1.2	1240.2 ± 1.2	1204.1 ± 1.2
x1 = 0.7974	899.1 ± 0.3	891.4 ± 0.3	883.6 ± 0.3	875.7 ± 0.3	867.7 ± 0.3	1342.1 ± 1.2	1304.6 ± 1.2	1267.8 ± 1.2	1231.5 ± 1.2
x1 = 0.8997	930 ± 0.3	922.1 ± 0.3	914.2 ± 0.3	906.3 ± 0.3	898.4 ± 0.3	1375.5 ± 1.2	1337.9 ± 1.2	1300.9 ± 1.2	1264.7 ± 1.2
x1 = 1	961.6 ± 0.2	953.7 ± 0.2	945.7 ± 0.2	937.8 ± 0.2	929.8 ± 0.2	1411.5 ± 1.2	1373.6 ± 1.2	1336.4 ± 1.2	1299.8 ± 1.2
